1 molecule from US20240245680A1, “Methods of Treating Retinal Vasculopathies” (Unity Biotechnology, Inc., priority 2021, published 2024) can be followed below.

Structures are written as SMILES.

One test relates to GCN2. Description: DDIT3 gene expression (qPCR) in GCN2 knockout, PERK knockout and WT cells. As to conditions: GCN2 knockout, 250 nM, five hours, qPCR (FIG. 10D). In kind it is cell-based. Here is the method: To determine if DDIT3 activation by Compound 39 is dependent on GCN2 activation, rather than PERK, the following experiment was performed. GCN2 knockout cells (CRL-2978™), PERK knockout cells (CRL-2976™), or WT controls cells (ATCC CRL-2977™) were cultured to near confluency and treated for five hours with a fixed concentration (250 nM) of Compound 39. Following treatment, RNA was extracted using the RNeasy® 96-Kit (Qiagen), and cDNA was next generated using Superscript™ IV VILO™ Master Mix (Thermofisher®). qPCR was performed using standard TaqMan reagents and conditions. DDIT3 gene expression was detected using primer Hs00358796_g1 and Tbp was used as a control gene using primer (Hs99999910_m1).

A further test relates to DDIT3 expression. Description: DDIT3 gene expression (qPCR) in HRMEC. In kind it is cell-based, human. Particulars: five hours, quarter-log dilutions from 10 μM, qPCR (FIG. 10C). Here is the method: Primary Human Retinal Microvascular Endothelial Cells (HRMEC—Cell Systems™ Corp., ACBRI 181; Lot #181.04.02.02.02) were cultured in Vascular Cell Basal Medium (ATCC® Lot 90909277) with Endothelial Cell Growth Kit-VEGF (ATCC Lot 80720201) with additional FBS added to a final concentration of 5% FBS. Cells were seeded in a 96-well plate at near confluency and treated the next day with Compound 39 for five hours. A dose response was generated using quarter-log dilutions using 10 μM as the starting concentration. Following treatment, RNA was extracted using the RNeasy® 96-Kit (Qiagen®), and cDNA was next generated using Superscript™ IV VILO™ Master Mix (Thermofisher®). qPCR was performed using standard TaqMan® reagents and conditions. DDTI3 gene expression was detected using primer Hs00358796_g1 and Tbp was used as a control gene using primer (Hs99999910_m1). Peak activation of DDIT3 expression was detected at ˜250 nM Compound 39.

Test [1] deals with ATF4, p-eIF2a, HIF1α protein in retina. Kind of test: Retinal immunoblot of ATF4, p-eIF2a and HIF1α after IP dosing, normoxic and OIR retinas. As to conditions: IP 30 mpk, 4 hours after administration, OIR neonates, immunoblot (FIG. 13). In kind it is in vivo, mouse. Here is the method: Normoxic and OIR eye retinas were dissected 4 hours after Compound 39 administration and the harvested samples were kept on ice and homogenized using Precellys (500 μL tubes) tissue homogenizer in 300 μL LSD Sample/Lysis buffer. Homogenized samples were then centrifuged to separate supernatant from debris. Lysates were separated by SDS-PAGE and immunoblotted for ATF4 (D4B8), p-eIF2a (D9G8), and HIF1α (Novus™, cat. NB100-449) and control protein Actinin (Cell Signaling™, cat. 3134S).

Regarding `CNc1nc2ccc(-c3c(C)ccc(C(=O)c4c(-c5ccccc5)n(C)n(-c5ccccc5)c4=O)c3N)cc2s1` [Compound 39, 4-(2-Amino-4-methyl-3-(2-(methylamino)benzo[d]thiazol-6-yl)benzoyl)-1-methyl-2,5-diphenyl-1H-pyrazol-3(2H)-one], the “dependence of DDIT3 induction on GCN2 or PERK” value in the test on GCN2 is on record as “dependent on GCN2 but not PERK”. Besides, the “concentration of peak activation of DDIT3 expression” value in the test with DDIT3 expression is given as roughly 250 nM. Also, in test [1], the “HIF1α protein levels in retina” value was “downregulated”, the “levels of ATF4 protein in retina” value is given as “increased” and the “phospho-eIF2α levels in retina” value is “increased”.
